According to patent publication US6835382B2, “Ii peptide therapeutics to enhance antigen presentation” (University of Massachusetts, priority 1996, dated 2004):
Blank lines part the entries; values can stand above or below the substance they belong to. Non-standard residues stand in square brackets, D forms with d. hArg = N=C(N)NCCCC[C@H](N)C(=O)O; Cit = NC(=O)NCCC[C@H](N)C(=O)O; Orn = NCCC[C@H](N)C(=O)O

Experiments:
[1] = biological target: T1, murine E^d MHC class II allele (Mus musculus, UniProt P01904+P01915); test: simultaneous assay, E^d allele (A20 APC, G28.C9 T hybridoma, HEL106-116; HT-2 [3H]TdR readout); type: cell-based; parameters: The A20 and CH27 B cell lymphoma lines express H-2^d and H-2^k alleles, respectively; endogenous in cells; host or cells: A20 B cell lymphoma (mitomycin C-treated or paraformaldehyde-fixed)
T1 sequence (P01904 26-255): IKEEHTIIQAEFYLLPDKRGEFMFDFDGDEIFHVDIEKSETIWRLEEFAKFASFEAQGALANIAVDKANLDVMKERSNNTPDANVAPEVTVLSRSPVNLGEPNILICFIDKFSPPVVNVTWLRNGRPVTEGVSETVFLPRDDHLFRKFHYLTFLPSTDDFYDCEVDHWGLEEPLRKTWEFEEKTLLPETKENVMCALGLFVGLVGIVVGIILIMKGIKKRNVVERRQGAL
T1 sequence (P01915 27-264 limits assumed): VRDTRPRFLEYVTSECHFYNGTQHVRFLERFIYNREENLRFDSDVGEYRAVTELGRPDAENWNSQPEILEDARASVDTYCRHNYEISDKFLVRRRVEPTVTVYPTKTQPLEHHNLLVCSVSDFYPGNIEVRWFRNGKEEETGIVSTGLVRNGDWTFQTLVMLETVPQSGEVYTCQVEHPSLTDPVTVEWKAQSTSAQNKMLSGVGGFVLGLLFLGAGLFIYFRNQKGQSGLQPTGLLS
How it was run: (§1)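 Read-out is [3H]TdR incorporation into HT-2 indicator cells exposed to supernatant from a 24 h primary culture. That culture combined mitomycin C-treated APC (5×10^6 cells/mL, 0.025 mg/mL mitomycin C, 20 min, 37° C), peptide, effector compound and T hybridoma, all added at once.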

[2] = system: murine E^k MHC class II allele; test: simultaneous assay, E^k allele (CH27 APC, TPc9.1 T hybridoma, THMCC82-103 or PGCC81-104); type: cell-based
How it was run: as §1

[3] = Table 15, AE peptide 16 μM, supernatant 1:4
[4] = Table 4, AE109 homolog 64 μM, supernatant 1:2
[5] = Table 16, AE peptide 4 μM, supernatant 1:8
[6] = Table 13, AE peptide 1 μM (fourth value), supernatant 1:4
[7] = Table 13, AE peptide 4 μM (third value), supernatant 1:4
[8] = Table 13, AE peptide 16 μM (second value), supernatant 1:4
[9] = Table 13, AE peptide 64 μM (first value), supernatant 1:4
[10] = Table 14, AE peptide 64 μM, supernatant 1:4
[11] = Table 9, AE peptide 64 μM, supernatant 1:4
[12] = Table 9, AE peptide 64 μM, supernatant 1:4, normalized by a factor of 5
[13] = Table 7, AE peptide 64 μM, supernatant 1:4
[14] = Table 7, AE peptide 64 μM, supernatant 1:4, normalized by a factor of 5
[15] = Table 5, AE peptide 64 μM, supernatant 1:4
[16] = Table 5, AE peptide 64 μM, supernatant 1:4, normalized to E^d by a factor of 10

Substance: Ac-LRNKNPK-NH2 [AE349]
Times Baseline Response, E^d [1, 3]: 25.3 | Times Baseline Response, E^k [2, 3]: 6.1

Times Baseline Response, E^d [1, 4]: 0.9
Substance: Ac-Y H MKLPKSAK-NH2 [AE133]
Times Baseline Response, E^k [2, 4]: 0.8

Times Baseline Response, E^d [1, 4]: 1.2
Substance: Ac-Y D MKLPKSAK-NH2 [AE135]
Times Baseline Response, E^k [2, 4]: 1.0

Times Baseline Response, E^d [1, 4]: 1.8
Substance: Ac-Y[hArg]MKLPKSAK-NH2 [AE132]
Times Baseline Response, E^d [1, 5]: 3.9 | Times Baseline Response, E^k [2, 4]: 5.5 | Times Baseline Response, E^k [2, 5]: 2.2

Substance: Ac-L[Cit]MKNPK-NH2 [AE342]
Times Baseline Response, E^d [1, 3]: 2.3 | Times Baseline Response, E^k [2, 3]: 5.4

Substance: Ac- (mL) RMKLPK-NH2 [AE174]
Times Baseline Response, E^d [1, 6]: 1 | Times Baseline Response, E^d [1, 7]: 2 | Times Baseline Response, E^d [1, 8]: 40 | Times Baseline Response, E^d [1, 9]: 55 | Times Baseline Response, E^d [1, 10]: 15.9 | Times Baseline Response, E^k [2, 6]: 1.6 | Times Baseline Response, E^k [2, 7]: 3.1 | Times Baseline Response, E^k [2, 8]: 9.8 | Times Baseline Response, E^k [2, 9]: 35.1 | Times Baseline Response, E^k [2, 10]: 34.3

Substance: Ac-LRMKLP F-NH2 (Ac-LRMKLPF-NH2) [AE248]
Times Baseline Response, E^d [1, 11]: 17.2 | Times Baseline Response, E^d [1, 3]: 34.7 | Times Baseline Response, E^k [2, 12]: 16.3 | Times Baseline Response, E^k [2, 3]: 42.6

Substance: Ac-LR (mL) KYPK-NH2 [AE303]
Times Baseline Response, E^d [1, 10]: 4.0 | Times Baseline Response, E^k [2, 10]: 25.3

Substance: Ac-LRLKYPk-NH2 [AE307]
Times Baseline Response, E^d [1, 10]: 13.2 | Times Baseline Response, E^k [2, 10]: 56.4

Substance: Ac-LRMK Q PK-NH2 (Ac-LRMKQPK-NH2) [AE233]
Times Baseline Response, E^d [1, 13]: 11.5 | Times Baseline Response, E^k [2, 14]: 17.0

Substance: Ac-LR[Orn]KLPK-NH2 [AE195]
Times Baseline Response, E^d [1, 15]: 12.1 | Times Baseline Response, E^d [1, 3]: 34.3 | Times Baseline Response, E^k [2, 16]: 12.1 | Times Baseline Response, E^k [2, 3]: 19.8

Substance: Ac-LR (mL) KyPK-NH2 [AE304]
Times Baseline Response, E^d [1, 10]: 3.9 | Times Baseline Response, E^k [2, 10]: 13.4

Substance: Ac-LRLKYPK-NH2 [AE301]
Times Baseline Response, E^d [1, 10]: 12.5 | Times Baseline Response, E^d [1, 3]: 30.7 | Times Baseline Response, E^d [1, 5]: 20.1 | Times Baseline Response, E^k [2, 10]: 59.9 | Times Baseline Response, E^k [2, 3]: 46.6 | Times Baseline Response, E^k [2, 5]: 15.5

Substance: Ac-LR N KLPK-NH2 (Ac-LRNKLPK-NH2) [AE202]
Times Baseline Response, E^d [1, 15]: 18.2 | Times Baseline Response, E^d [1, 3]: 34.4 | Times Baseline Response, E^k [2, 16]: 9.3 | Times Baseline Response, E^k [2, 3]: 5.8

Substance: Ac-YRMKL-NH2 [AE116]
Times Baseline Response, E^d ([1]; Table 1, AE peptide 16 μM (second value), 0.4 μM HEL106-116, supernatant 1:4): 2.1 | Times Baseline Response, E^d ([1]; Table 1, AE peptide 64 μM (first value), 0.4 μM HEL106-116, supernatant 1:4): 7.1 | Times Baseline Response, E^k ([2]; Table 1, AE peptide 16 μM (second value), 0.075 μM THMCC82-103, supernatant 1:2): 3.2 | Times Baseline Response, E^k ([2]; Table 1, AE peptide 64 μM (first value), 0.075 μM THMCC82-103, supernatant 1:2): 15.5

Substance: Ac-LRMK H PK-NH2 (Ac-LRMKHPK-NH2) [AE228]
Times Baseline Response, E^d [1, 13]: 8.5 | Times Baseline Response, E^k [2, 14]: 20.3

Substance: Ac-QLDSLRMKLPKSAK-NH2 [AE152]
Times Baseline Response, E^d ([1]; Table 2, AE peptide 64 μM, 0.05 μM HEL106-116, supernatant 1:2): 2.3 | Times Baseline Response, E^k ([2]; Table 2, AE peptide 64 μM, 0.05 μM PGCC81-104, supernatant 1:2): 0.4 | activity in simultaneous assay on E^k, in words ([2]; Tables 2 and 18): inhibition

Substance: Ac-l RMKLPK-NH2 [AE160]
Times Baseline Response, E^d ([1]; Table 11, AE peptide 64 μM, supernatant 1:8): 11.0 | Times Baseline Response, E^k ([2]; Table 11, AE peptide 64 μM, supernatant 1:4): 1.7

Times Baseline Response, E^d [1, 4]: 2.8
Substance: Ac-Y[Cit]MKLPKSAK-NH2 [AE131]
Times Baseline Response, E^d [1, 3]: 1.6 | Times Baseline Response, E^k [2, 4]: 0.8 | Times Baseline Response, E^k [2, 3]: 4.1

Substance: Ac-ARNKNPF-NH2 [AE347]
Times Baseline Response, E^d [1, 3]: 1.0 | Times Baseline Response, E^k [2, 3]: 2.8

Substance: Ac-LRMKLP[Cit]-NH2 [AE241]
Times Baseline Response, E^d [1, 11]: 3.4 | Times Baseline Response, E^d [1, 5]: 7.1 | Times Baseline Response, E^k [2, 12]: 12.2 | Times Baseline Response, E^k [2, 5]: 1.0
